Reference: PMC6019934 (ChemMedChem, 2018)
Values after ≈ are worked out from the molar mass of the structure shown. Where two headings read alike, the source gives them in different places.

What was measured:
MraY from S. aureus = molecular target: T1, MraY from S. aureus (Staphylococcus aureus, UniProt Q2FZ93); assay: biochemical; type: biochemical
T1 sequence (Q2FZ93 1-321): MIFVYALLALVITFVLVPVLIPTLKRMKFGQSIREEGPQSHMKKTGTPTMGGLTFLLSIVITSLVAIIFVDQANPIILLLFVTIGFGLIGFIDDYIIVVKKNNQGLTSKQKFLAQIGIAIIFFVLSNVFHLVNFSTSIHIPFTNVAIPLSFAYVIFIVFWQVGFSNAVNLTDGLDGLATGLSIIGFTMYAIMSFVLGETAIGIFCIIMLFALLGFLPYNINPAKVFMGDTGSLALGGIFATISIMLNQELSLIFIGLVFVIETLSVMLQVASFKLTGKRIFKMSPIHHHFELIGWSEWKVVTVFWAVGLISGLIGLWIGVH

[1] = molecular target: T2, MraY from Aquifex aeolicus (Aquifex aeolicus, UniProt O66465); type: biochemical
T2 sequence (O66465 1-359): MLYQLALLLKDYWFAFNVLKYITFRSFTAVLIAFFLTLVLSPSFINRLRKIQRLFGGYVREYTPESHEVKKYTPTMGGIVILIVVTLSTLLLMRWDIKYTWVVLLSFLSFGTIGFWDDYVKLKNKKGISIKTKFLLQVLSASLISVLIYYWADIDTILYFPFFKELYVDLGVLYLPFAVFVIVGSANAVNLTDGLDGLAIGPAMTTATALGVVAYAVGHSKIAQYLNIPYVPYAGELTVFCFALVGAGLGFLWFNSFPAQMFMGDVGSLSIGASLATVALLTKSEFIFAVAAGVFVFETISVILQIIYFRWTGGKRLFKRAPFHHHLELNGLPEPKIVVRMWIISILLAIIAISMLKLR

MraY from C. bolteae = MraY from C. bolteae (Enterocloster bolteae, UniProt R0BTE9); assay: Fluorescence-based in vitro MraY assay, MraY from C. bolteae; type: biochemical, Clostridium bolteae; conditions: IC50 ± SD
[2] = system: S. aureus subsp. aureus (Newman strain); assay: Minimal inhibitory concentration against growth of S. aureus; type: cell-based
[3] = system: E. coli efflux-deficient ΔtolC mutant; assay: Minimal inhibitory concentration against growth of E. coli ΔtolC; type: cell-based
E. coli DH5α strain = assay: Minimal inhibitory concentration against growth of E. coli DH5α; type: cell-based; conditions: Escherichia coli, read-out: MIC (E. coli DH5α)
[4] = read-out: IC50 (MraY S. aureus), crude membranes, IC50 ± SD
[5] = read-out: IC50 (MraY Aquifex aeolicus), solubilized and purified form, IC50 ± SD
[6] = read-out: IC50 (MraY C. bolteae crude), protein in crude membranes
[7] = read-out: IC50 (MraY C. bolteae solubil.), protein in solubilized and purified form
[8] = IC50 (MraY C. bolteae crude), protein in crude membranes
[9] = IC50 (MraY C. bolteae solubil.), protein in solubilized and purified form

SMILES | IC50 (MraY from S. aureus; [4]) [nM] | IC50 [1, 5] [nM] | IC50 (MraY from C. bolteae; [6]) [nM] | IC50 (MraY from C. bolteae; [7]) [nM] | antibacterial activity against S. aureus in words [2] | MIC (E. coli ΔtolC) [3] [µg/mL] | MIC (E. coli DH5α strain) [µg/mL] | IC50 (MraY from S. aureus) [nM] | IC50 [1] [nM] | IC50 (MraY from C. bolteae; [8]) [nM] | IC50 (MraY from C. bolteae; [9]) [nM] | fold difference in MraY inhibition between C1 6 and D1 7 (MraY from S. aureus; crude membranes only (S. aureus and C. bolteae MraY)) | fold less active MraY inhibitor than C1 6 (S. aureus) (MraY from S. aureus; crude membranes, relative to C1 6) | fold lower inhibitory activity than C1 6 (Aquifex aeolicus) ([1]; solubilized Aquifex aeolicus protein, relative to C1 6)
CO[C@H]1[C@H](O[C@H]([C@H]2O[C@@H](n3ccc(=O)[nH]c3=O)[C@H](O)[C@@H]2O)[C@H](NCCCNC(=O)[C@@H](NC(=O)[C@@H](NC(=O)N[C@H](C(=O)O)C(C)C)[C@@H]2CCNC(=N)N2)[C@@H](OC(=O)CCCCCCCCCCCCN(O)C(=N)N)C(C)C)C(=O)O)O[C@H](CN)[C@H]1O [A1 3, muraymycin A1] | 0.027 ± 0.003 | 0.11 ± 0.02 | 0.017 | 0.16 ± 0.04 | only congener with notable activity against S. aureus | 2 (≈ 1.65 µM) | > 32 | – | – | – | – | – | – | –
CC(C)C[C@H](NC(=O)[C@@H](NC(=O)N[C@H](C(=O)O)C(C)C)[C@@H]1CCNC(=N)N1)C(=O)NCCCN[C@H](C(=O)O)[C@H](O[C@@H]1O[C@H](CN)[C@@H](O)[C@H]1O)[C@H]1O[C@@H](n2ccc(=O)[nH]c2=O)[C@H](O)[C@@H]1O [D2 8, muraymycin D2] | – | – | – | – | – | 1 (≈ 1.09 µM) | > 32 | 0.39 ± 0.11 | 46 ± 13 | 25 | 200 ± 30 | – | – | –
CO[C@H]1[C@H](O[C@H]([C@H]2O[C@@H](n3ccc(=O)[nH]c3=O)[C@H](O)[C@@H]2O)[C@H](NCCCNC(=O)[C@@H](NC(=O)[C@@H](NC(=O)N[C@H](C(=O)O)C(C)C)[C@@H]2CCNC(=N)N2)[C@@H](O)C(C)C)C(=O)O)O[C@H](CN)[C@H]1O [C1 6, muraymycin C1] | – | – | – | – | – | 1 (≈ 1.06 µM) | > 32 | 0.016 ± 0.002 | – | 0.093 | 0.45 ± 0.17 | – | – | –
CO[C@H]1[C@H](O[C@H]([C@H]2O[C@@H](n3ccc(=O)[nH]c3=O)[C@H](O)[C@@H]2O)[C@H](NCCCNC(=O)[C@@H](NC(=O)[C@@H](NC(=O)N[C@H](C(=O)O)C(C)C)[C@@H]2CCN=C(N)N2)[C@@H](OC(=O)CCCCC(C)C)C(C)C)C(=O)O)O[C@H](CN)[C@H]1O [B6 5, muraymycin B6] | 0.021 ± 0.002 | 0.19 ± 0.02 | 0.036 | 0.38 ± 0.03 | – | 1 (≈ 0.933 µM) | > 32 | – | – | – | – | – | – | –
CO[C@H]1[C@H](O[C@H]([C@H]2O[C@@H](n3ccc(=O)[nH]c3=O)[C@H](O)[C@@H]2O)[C@H](NCCCNC(=O)[C@H](CC(C)C)NC(=O)[C@@H](NC(=O)N[C@H](C(=O)O)C(C)C)[C@@H]2CCNC(=N)N2)C(=O)O)O[C@H](CN)[C@H]1O [D1 7, muraymycin D1] | – | – | – | – | – | 1 (≈ 1.08 µM) | > 32 | 0.48 ± 0.13 | 99 ± 30 | 40 | 380 ± 110 | 30- to 430 fold | ca. 30 fold | ca. 280 fold
CO[C@H]1[C@H](O[C@H]([C@H]2O[C@@H](n3ccc(=O)[nH]c3=O)[C@H](O)[C@@H]2O)[C@H](NCCCNC(=O)[C@@H](NC(=O)[C@@H](NC(=O)N[C@H](C(=O)O)C(C)C)[C@@H]2CCN=C(N)N2)[C@@H](OC(=O)CCCCCCC(C)C)C(C)C)C(=O)O)O[C@H](CN)[C@H]1O [B2 4, muraymycin B2] | 0.01 ± 0.002 | 0.11 ± 0.01 | 0.0083 | 0.14 ± 0.01 | – | 1 (≈ 0.909 µM) | > 32 | – | – | – | – | – | – | –
